From patent publication US20220283165A1, “Methods of Enhancing Immunogenicity of Cancers” (The Board of Trustees of the Leland Stanford Junior …, priority 2019, published 2022)

Experiments:
Myc-AURKA complex = Myc-AURKA complex (Homo sapiens, UniProt O14965); conditions: MYCN-amplified neuroblastomas; cited from earlier work
[1] = tested on: Siglec-7 ligands on PEER cells; experiment: Siglec-7 ligand display (Siglec-7-Fc staining, flow cytometry) on PEER cells after MYC or CDK7/9 inhibition; type: cell-based, human; conditions: 48 hours, 10058-F4 at 100 μM
Protocol: (§1) ST6GALNAC4 or pharmacologic MYC inhibition for 48 hours by incubation with 100 μM 10058-F4 (n(control)=8, n(KO)=4, n(inhibitor)=6, two-tailed Mann-Whitney U test). Data presented as mean ±s.d. Panel C: Representative Western blot for ST6GALNAC4 in PEER cells following MYC inhibition with 100 μM 10058-F4 for 48 hours. Data representative of two independent experiments. Panel D: Workflow to collect primary T-ALL from patients, treat with a MYC inhibitor (10058-F4), and quantify Siglec-7 ligands. Panel E: Siglec-7 ligands on patient T-ALL liquid biopsies treated with the indicated concentration of 10058-F4 for 48 hours. Data represent three donors. Panel F: Correlation of ST6GALNAC4 and MYC mRNA (RNA-seq) gene expression across all hematopoietic tumor samples (n=106) in the CCLE with MYC expression>3. Correlation determined by least squares regression. Panel G: Survival Z-score heatmap for each sialyltransferase across each hematopoietic tumor within the PRECOG database. […] Panel H: Siglec-7 ligand display by KARPAS-422 DLBCL cells following treatment with 10058-F4 for 48 hours (n=3 per group, two-tailed Student's t-test). Data presented as mean±s.d. Panel I: Survival stratified by median MYC and ST6GALNAC4 expression in a cohort of DLBCL patients (GSE4475). HR, hazard ratio from Cox Proportional Hazards model. […] Monocyte prevalence was calculated as a fraction of all lymphocytes. […]

ST6GALNAC4 = experiment: Western blot for ST6GALNAC4 in PEER cells after MYC inhibition; type: cell-based, human; conditions: 100 μM 10058-F4 for 48 hours
Protocol: as §1

[2] = tested on: MYC-overexpressing T-cell acute lymphoblastic leukemia, mixed-lineage leukemia, neuroblastomas, small cell lung cancers; conditions: cited from earlier work
[3] = tested on: hematopoietic cancers and pancreatic ductal adenocarcinoma (PDAC) exhibiting C-MYC overexpression; conditions: in vitro and in vivo; cited from earlier work
c-Myc = conditions: P53-mutant human hepatocellular carcinoma cells; cited from earlier work
[4] = tested on: MYCN-amplified neuroblastoma; conditions: xenograft model; cited from earlier work
[5] = tested on: Siglec-7 ligands on primary human T-ALL cells; experiment: Siglec-7 ligands on patient T-ALL liquid biopsies treated with MYC inhibitor; type: cell-based; conditions: FACS-sorted primary T-ALL cells, 48 hours; two of three patients had Siglec-7-Fc binding
Protocol: as §1, with “mean±s.d.” for “mean±s.d. Panel I: Survival stratified by median MYC and ST6GALNAC4 expression in a cohort of DLBCL patients (GSE4475). HR, hazard ratio from Cox Proportional Hazards model.”
Assessed next was whether T-ALL liquid biopsies display Siglec-7 ligands susceptible to MYC regulation. […]

[6] = tested on: Siglec-7 ligands on KARPAS-422 DLBCL cells; experiment: Siglec-7 ligand display by KARPAS-422 DLBCL cells after MYC inhibition; type: cell-based, human; conditions: 48 hours
Protocol: as §1

Myc-Max complex = target: T1, Myc-Max complex (Homo sapiens, UniProt P01106); conditions: HL60 cells; cited from earlier work
T1 construct: host or cells: HL60 cells (for 10058-F4 only)
T1 sequence (P01106 whole entry, one chain of several): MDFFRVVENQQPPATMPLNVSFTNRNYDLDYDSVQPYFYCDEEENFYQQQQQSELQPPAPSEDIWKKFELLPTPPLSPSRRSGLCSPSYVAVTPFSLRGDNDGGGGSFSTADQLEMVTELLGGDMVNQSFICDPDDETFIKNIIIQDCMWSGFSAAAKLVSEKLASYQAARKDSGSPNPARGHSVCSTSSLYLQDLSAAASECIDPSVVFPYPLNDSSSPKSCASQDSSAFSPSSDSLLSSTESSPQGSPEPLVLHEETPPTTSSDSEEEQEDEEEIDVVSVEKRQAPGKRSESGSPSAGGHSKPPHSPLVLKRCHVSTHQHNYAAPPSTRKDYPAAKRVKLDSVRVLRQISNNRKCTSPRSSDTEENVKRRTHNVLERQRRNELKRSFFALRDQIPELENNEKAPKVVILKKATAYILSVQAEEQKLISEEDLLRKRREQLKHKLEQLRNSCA

Myc-AURKA complex, sequence (O14965 whole entry, one chain of several): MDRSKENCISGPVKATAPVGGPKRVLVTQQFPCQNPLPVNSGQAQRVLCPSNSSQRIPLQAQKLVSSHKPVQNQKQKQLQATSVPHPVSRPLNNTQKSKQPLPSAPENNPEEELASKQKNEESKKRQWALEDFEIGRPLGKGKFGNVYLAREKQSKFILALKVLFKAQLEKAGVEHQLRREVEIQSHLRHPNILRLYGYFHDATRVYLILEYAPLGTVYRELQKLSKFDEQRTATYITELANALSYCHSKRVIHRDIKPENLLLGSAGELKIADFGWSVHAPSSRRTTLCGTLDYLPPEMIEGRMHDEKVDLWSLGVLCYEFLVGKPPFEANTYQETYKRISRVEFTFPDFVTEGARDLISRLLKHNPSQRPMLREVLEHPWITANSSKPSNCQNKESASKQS

O=C(O)c1ccc(Nc2ncc3c(n2)-c2ccc(Cl)cc2C(c2c(F)cccc2F)=NC3)cc1 [MLN8054]
N-Myc degradation and tumor regression (Myc-AURKA complex): N-Myc degradation and tumor regression

CN(C)C/C=C/C(=O)Nc1ccc(C(=O)Nc2cccc(Nc3ncc(Cl)c(-c4c[nH]c5ccccc45)n3)c2)cc1 [THZ1]
Siglec-7-Fc binding (Siglec-7 ligands) [1]: reduced Siglec-7-Fc binding
ST6GALNAC4 protein expression (ST6GALNAC4): diminished ST6GALNAC4 protein expression
anti-tumor effects [2]: potent anti-tumor effects

Cc1sc2c(c1C)C(c1ccc(Cl)cc1)=N[C@@H](CC(=O)OC(C)(C)C)c1nnc(C)n1-2 [JQ1]
anti-cancer effects [3]: potent anti-cancer effects both in vitro and in vivo

COc1cc(Nc2ncc3c(n2)-c2ccc(Cl)cc2C(c2c(F)cccc2OC)=NC3)ccc1C(=O)O [MLN8237]
c-Myc degradation (c-Myc): induced c-Myc degradation
N-Myc degradation and tumor regression (Myc-AURKA complex): N-Myc degradation and tumor regression

CC(=O)c1cc([N+](=O)[O-])c(Sc2ccc(F)cc2F)s1 [P22077]
growth of MYCN-amplified neuroblastoma [4]: markedly suppressed growth

CCc1ccc(/C=C2/SC(=S)NC2=O)cc1 [10058-F4]
Siglec-7-Fc binding (Siglec-7 ligands) [1]: reduced Siglec-7-Fc binding
ST6GALNAC4 protein expression (ST6GALNAC4): diminished ST6GALNAC4 protein expression
Siglec-7 ligand display [5]: reduced Siglec-7 ligand display
reduction in Siglec-7 ligand abundance [6]: 70%
disruption of the Myc-Max complex (Myc-Max complex): capable of disrupting the Myc-Max complex
